32 molecules from patent US8871756B2 (Hoffmann-La Roche Inc., priority 2011, dated 2014) can be followed below.

The EC50 is the midpoint of the concentration-response curve.

Molecules are shown by their SMILES.

The first assay relates to RSV Long strain. As to the kind of experiment: Viral cytopathic effect (CPE) assay, anti-RSV activity. In kind it is cell-based, Respiratory Syncytial Virus. Particulars: RSV Long strain (ATCC); cell viability after 6 days, Cell Counting kit-8. On the procedure:
Viral cytopathic effect (CPE) assay: To measure anti-RSV activity of compounds, 96-well plates are seeded with 6×10^3 cells per well in Dulbecco's modified Eagle's medium (DMEM) containing 10% fetal bovine serum (FBS). Cells are infected the next day with sufficient RSV Long strain (ATCC) to produce an approximately 80-90% cytopathic effect after 6 days, in the presence of serial half-log diluted compound in a total volume of 200 μL per well. The viability of cells is assessed after 6 days using Cell Counting kit-8 (Dojindo Molecular Technologies). The absorbance at 450 nm and referenced at 630 nm is measured to determine 50% effective concentration (EC50).
The compounds of the present invention were tested for their anti-RSV activity, and the activation as described herein. The Examples were tested in the above assay and found to have EC50 of about 0.0001 μM to about 10 μM.
In general terms: Cytopathic effects are the visible damage that an infection or toxin causes in cultured cells.
The molecule `Cc1ccc2nc(N3CC[S+]([O-])c4ccccc4C3)cc(NCC3(N)COC3)c2c1` (single isomer, unassigned; (-)) [Example 18-3, (−)-N-[(3-Aminooxetan-3-yl)methyl]-6-methyl-2-[1-oxido-2,3-dihydro-1,4-benzothiazepin-4(5H)-yl]quinolin-4-amine] showed an EC50 of 0.014 µM. Still for that read-out and setting: the same measure for `Cc1ccc2nc(N3CCS(=O)(=O)c4ccccc4C3)nc(NCC(F)CCN)c2c1` (centres unmarked) [Example 62-5, N^˜1^˜-[2-(1,1-Dioxido-2,3-dihydro-1,4-benzothiazepin-4(5H)-yl)-6-methylquinazolin-4-yl]-2-fluorobutane-1,4-diamine]: 0.017 µM.

Still in this assay, the particulars now being: human respiratory syncytial virus, 144 h, RSV Long strain (ATCC); cell viability after 6 days, Cell Counting kit-8.
For `COCCNc1cc(N2CCS(=O)(=O)c3ccccc3C2)nc2ccc(C)cc12` [Example 9-26, 2-(1,1-Dioxido-2,3-dihydro-1,4-benzothiazepin-4(5H)-yl)-N-(2-methoxyethyl)-6-methylquinolin-4-amine], the EC50 stood at 7.2 µM. This lies in the single-digit micromolar range. Still for that read-out and setting: the same measure for `Cc1ccc2nc(N3CCS(=O)(=O)c4ccccc4C3)nc(N)c2c1` [Example 59, 2-(1,1-Dioxido-2,3-dihydro-1,4-benzothiazepin-4(5H)-yl)-6-methylquinazolin-4-amine]: 0.746 µM; for `OCC(O)Cc1cc(N2CCCc3ccccc3C2)nc2ccc(Cl)cc12` (centres unmarked) [Example 130-2, 3-[6-Chloro-2-(1,3,4,5-tetrahydro-2H-2-benzazepin-2-yl)quinolin-4-yl]propane-1,2-diol]: 7.27 µM. Still for that read-out and setting: under `Cc1ccc2nc(N3CCS(=O)(=O)c4ccccc4C3)nc(NCC(C)(C)N)c2c1` [Example 60, N^˜1^˜-[2-(1,1-Dioxido-2,3-dihydro-1,4-benzothiazepin-4(5H)-yl)-6-methylquinazolin-4-yl]-2-methylpropane-1,2-diamine] stands 0.018 µM; under `Cc1ccc2nc(N3CCC(F)(F)c4ccccc4C3)cc(NCC(C)(C)N)c2c1` [Example 110-12, N˜1˜-[2-(5,5-Difluoro-1,3,4,5-tetrahydro-2H-2-benzazepin-2-yl)-6-methylquinolin-4-yl]-2-methylpropane-1,2-diamine], 0.072 µM; under `Cc1ccc2nc(N3CCS(=O)(=O)c4ccccc4C3)nc(NCCN)c2c1` [Example 90, N-[2-(1,1-Dioxido-2,3-dihydro-1,4-benzothiazepin-4(5H)-yl)-6-methylquinazolin-4-yl]ethane-1,2-diamine], 0.005 µM. Still for that read-out and setting: the same measure for `Cc1cccc2c(NCCCCCCCCN)cc(N3CCS(=O)(=O)c4ccccc4C3)nc12` [Example 12-7, N-[2-(1,1-Dioxido-2,3-dihydro-1,4-benzothiazepin-4(5H)-yl)-8-methylquinolin-4-yl]octane-1,8-diamine]: 0.226 µM; for `Cc1ccc2nc(N3CCS(=O)(=O)c4ccccc4C3)cc(NCC(O)CN)c2c1` (centres unmarked) [Example 9-7, 1-Amino-3-{[2-(1,1-dioxido-2,3-dihydro-1,4-benzothiazepin-4(5H)-yl)-6-methylquinolin-4-yl]amino}propan-2-ol]: 0.002 µM. Turning to `Cc1ccc2nc(N3CCS(=O)(=O)c4ccccc4C3)cc(NCC3(N)CCC3)c2c1` [Example 3-54, N-[(1-Aminocyclobutyl)methyl]-2-(1,1-dioxido-2,3-dihydro-1,4-benzothiazepin-4(5H)-yl)-6-methylquinolin-4-amine], the EC50 is 0.114 µM. On the same count and under the same terms, the same measure for `Cc1ccc2nc(N3CCS(=O)(=O)c4ccccc4C3)cc(NC(=O)c3ccccn3)c2c1` [Example 48, N-[2-(1,1-Dioxido-2,3-dihydro-1,4-benzothiazepin-4(5H)-yl)-6-methylquinolin-4-yl]pyridine-2-carboxamide]: 0.009 µM; for `Cc1ccc2nc(N3CCS(=O)(=O)c4ccccc4C3)cc(NCCS(C)(=N)=O)c2c1` (centres unmarked) [Example 77, 2-(1,1-Dioxido-2,3-dihydro-1,4-benzothiazepin-4(5H)-yl)-6-methyl-N-[2-(S-methylsulfonimidoyl)ethyl]quinolin-4-amine]: 8.78 µM; for `Cc1ccc2nc(N3CCS(=O)(=O)c4ccccc4C3)cc(N3CCC(C)(O)C3)c2c1` (centres unmarked) [Example 3-45, 1-[2-(1,1-Dioxido-2,3-dihydro-1,4-benzothiazepin-4(5H)-yl)-6-methylquinolin-4-yl]-3-methylpyrrolidin-3-ol]: 5.23 µM.

`NCCNc1cc(N2CCCc3c(Cl)cccc3C2)nc2ccccc12` [Example 118-12, N-[2-(6-Chloro-1,3,4,5-tetrahydro-2H-2-benzazepin-2-yl)quinolin-4-yl]ethane-1,2-diamine] had an EC50 of 0.448 µM. Same read-out and setting: the same measure for `Cc1ccc2nc(N3CCNc4ccccc4C3)cc(NCCN)c2c1` [Example 133-2, N-[6-Methyl-2-(1,2,3,5-tetrahydro-4H-1,4-benzodiazepin-4-yl)quinolin-4-yl]ethane-1,2-diamine]: 0.186 µM; for `NC1(CNc2cc(N3CCSc4ccccc4C3)nc3ccc(Cl)cc23)COC1` [Example 4-1, N-[(3-Aminooxetan-3-yl)methyl]-6-chloro-2-(2,3-dihydro-1,4-benzothiazepin-4(5H)-yl)quinolin-4-amine]: 0.269 µM. For the molecule `Cc1ccc2nc(N3CCS(=O)(=O)c4ccccc4C3)cc(NC3(CNC(=O)C(F)(F)F)COC3)c2c1` [Example 70, N-[(3-{[2-(1,1-Dioxido-2,3-dihydro-1,4-benzothiazepin-4(5H)-yl)-6-methylquinolin-4-yl]amino}oxetan-3-yl)methyl]-2,2,2-trifluoroacetamide], the EC50 was 0.071 µM. Still for that read-out and setting: under `Cc1ccc2nc(N3CCS(=O)(=O)c4ccccc4C3)cc(NCC3(CN)COC3)c2c1` [Example 3-50, N-{[3-(Aminomethyl)oxetan-3-yl]methyl}-2-(1,1-dioxido-2,3-dihydro-1,4-benzothiazepin-4(5H)-yl)-6-methylquinolin-4-amine] stands 0.0004 µM; under `Cc1ccc2nc(N3CCS(=O)(=O)c4ccccc4C3)cc(NCCCN)c2c1` [Example 9-3, N-[2-(1,1-Dioxido-2,3-dihydro-1,4-benzothiazepin-4(5H)-yl)-6-methylquinolin-4-yl]propane-1,3-diamine], 0.001 µM.

As to `CCNC(=O)Nc1cc(N2CCC(F)(F)c3ccccc3C2)nc2ccc(C)cc12` [Example 110-14], the response was half-maximal at 0.648 µM (EC50). In turn, `Cc1ccc2nc(N3CCC(F)(F)c4ccccc4C3)nc(NCC(F)(F)CN)c2c1` [Example 117, N-[2-(5,5-Difluoro-1,3,4,5-tetrahydro-2H-2-benzazepin-2-yl)-6-methylquinazolin-4-yl]-2,2-difluoropropane-1,3-diamine] registered an EC50 of 5.97 µM. The molecule `NCCNc1cc(N2CCOc3ccccc3C2)nc2ccccc12` [Example 134, N-[2-(2,3-Dihydro-1,4-benzoxazepin-4(5H)-yl)quinolin-4-yl]ethane-1,2-diamine] gave an EC50 of 0.25 µM. `COCCNCCNc1cc(N2CCS(=O)(=O)c3ccccc3C2)nc2ccc(C)cc12` [Example 3-44, N-[2-(1,1-Dioxido-2,3-dihydro-1,4-benzothiazepin-4(5H)-yl)-6-methylquinolin-4-yl]-N′-(2-methoxyethyl)ethane-1,2-diamine] showed an EC50 of 0.012 µM. With `CC(C)(N)CNc1cc(N2CCS(=O)(=O)c3ccccc3C2)nc2ccccc12` [Example 5-4, N˜1˜-[2-(1,1-Dioxido-2,3-dihydro-1,4-benzothiazepin-4(5H)-yl)quinolin-4-yl]-2-methylpropane-1,2-diamine], the concentration for a half-maximal effect (EC50) came out at 0.326 µM. Same read-out and setting: under `Cc1ccc2nc(N3CCS(=O)(=O)c4ccccc4C3)cc(NCC3(N)CCCCC3)c2c1` [Example 2-11, N-[(1-Aminocyclohexyl)methyl]-2-(1,1-dioxido-2,3-dihydro-1,4-benzothiazepin-4(5H)-yl)-6-methylquinolin-4-amine] stands 0.008 µM; under `COC(=O)c1ccc2nc(N3CCS(=O)(=O)c4ccccc4C3)cc(NCC3(CN)COC3)c2c1` [Example 104, Methyl 4-({[3-(aminomethyl)oxetan-3-yl]methyl}amino)-2-(1,1-dioxido-2,3-dihydro-1,4-benzothiazepin-4(5H)-yl)quinoline-6-carboxylate], 0.89 µM; under `Cc1ccc2nc(N3CCS(=O)(=O)c4ccccc4C3)cc(NC3CNCC3F)c2c1` (stereo not drawn) [Example 28-1, 2-(1,1-Dioxido-2,3-dihydro-1,4-benzothiazepin-4(5H)-yl)-N-trans-(4-fluoropyrrolidin-3-yl)-6-methylquinolin-4-amine], 0.007 µM. Molecule `Cc1ccc2nc(N3CCS(=O)(=O)c4ccccc4C3)cc(NCCN(C)C)c2c1` [Example 3-32, N′-[2-(1,1-Dioxido-2,3-dihydro-1,4-benzothiazepin-4(5H)-yl)-6-methylquinolin-4-yl]-N,N-dimethylethane-1,2-diamine] registered an EC50 of 0.037 µM. Same read-out and setting: under `Cc1ccc2nc(N3CCC(F)(F)c4ccccc4C3)cc(NCCCN)c2c1` [Example 111-9, N-[2-(5,5-Difluoro-1,3,4,5-tetrahydro-2H-2-benzazepin-2-yl)-6-methylquinolin-4-yl]propane-1,3-diamine] stands 0.047 µM. Same read-out and setting: under `Cc1ccc2nc(N3CC[S+]([O-])c4ccccc4C3)nc(NCC3(NCc4ccccc4)COC3)c2c1` (centres unmarked) [Example 55-2, N-{[3-(Benzylamino)oxetan-3-yl]methyl}-6-methyl-2-(1-oxido-2,3-dihydro-1,4-benzothiazepin-4(5H)-yl)quinazolin-4-amine] stands 0.202 µM. Same read-out and setting: the same measure for `CN(C)CCNc1cc(N2CCCc3ccccc3C2)nc2ccccc12` [Example 118-22, N,N-Dimethyl-N′-[2-(1,3,4,5-tetrahydro-2H-2-benzazepin-2-yl)quinolin-4-yl]ethane-1,2-diamine]: 2.23 µM.
